pIC50: −log10 of the molar value.
Assays:
[1] = target: T1, GST-ABI2 with 6×-His-PYR1^MANDI (Arabidopsis thaliana, UniProt O49686, F108A/F159L/K59R/S122G/V81I/Y58H); assay: PP2C enzyme inhibition assay (4-methylumbelliferyl-phosphate); format: biochemical; details: 100 nM 6×-His-PYR1^MANDI, 50 nM GST-PP2C; read-out: IC50, mandipropamid mediated inhibition of ABI2
T1 construct: made in house; host or cells: E. coli BL21[DE3]pLysS (receptor)
Protocol: (§1) We next characterized the effects of recombinant PYR1^MANDI on PP2C activity using the fluorogenic substrate 4-methylumbelliferyl-phosphate. Recombinant receptor and PP2C proteins were prepared as described above and used to examine PP2C inactivation in response to mandipropamid or ABA. Enzyme inhibition assays were conducted using the following assay conditions: 100 nM 6×-His-PYR1^MANDI, 50 nM GST-PP2C, 100 mM Tris-OAc (pH 7.9), 100 mM NaCl, 1 mM MnCl2, 1% β-mercaptoethanol. […] The three ABA-regulated clade A PP2Cs, GST-HAB1, GST-ABI1 and GST-ABI2 were each tested under the same enzyme conditions in separate reactions. The assays were conducted at a variety of mandipropamid or ABA concentrations so that IC50 values could be determined. […] Thus, the PYR1^MANDI receptor is highly sensitive to activation by mandipropamid and interacts with multiple clade A PP2Cs in response to mandipropamid. This high level of sensitivity is consistent with the yeast two hybrid results described above in which a detectable interaction between PYR1^MANDI and HAB1 could be observed at concentrations as low as 2 nM (see Table 1). We note that the yeast two hybrid reporter systems requires only a small percentage of PYR1^MANDI receptors to bind HAB1 for an interaction signal and is therefore a potentially more sensitive indicator than in vitro assays. […] Thus these in vitro assays confirm that PYR1^MANDI is selectively activated by mandipropamid.

[2] = target: T2, GST-HAB1 with 6×-His-PYR1^MANDI (Arabidopsis thaliana, UniProt O49686, F108A/F159L/K59R/S122G/V81I/Y58H); assay: as above; format: biochemical; details: 100 nM 6×-His-PYR1^MANDI, 50 nM GST-PP2C; read-out: IC50, mandipropamid mediated inhibition of HAB1
T2 construct: made in house; host or cells: E. coli BL21[DE3]pLysS (receptor)
T2 sequence (Q9CAJ0 23-511): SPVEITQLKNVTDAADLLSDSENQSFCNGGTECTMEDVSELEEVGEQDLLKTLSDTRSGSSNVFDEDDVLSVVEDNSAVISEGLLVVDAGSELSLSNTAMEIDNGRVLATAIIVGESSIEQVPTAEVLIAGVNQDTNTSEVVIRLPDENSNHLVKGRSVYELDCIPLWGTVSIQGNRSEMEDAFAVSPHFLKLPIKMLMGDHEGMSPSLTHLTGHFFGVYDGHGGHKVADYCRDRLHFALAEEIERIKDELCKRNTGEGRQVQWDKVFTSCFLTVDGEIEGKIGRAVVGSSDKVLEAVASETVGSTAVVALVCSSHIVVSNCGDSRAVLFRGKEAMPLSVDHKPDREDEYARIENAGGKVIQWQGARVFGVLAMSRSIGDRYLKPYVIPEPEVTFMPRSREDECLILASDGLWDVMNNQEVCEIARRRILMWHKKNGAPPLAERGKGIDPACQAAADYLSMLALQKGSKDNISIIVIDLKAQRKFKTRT
T2 sequence (O49686 whole entry Y58H/K59R/V81I/F108A/S122G/F159L): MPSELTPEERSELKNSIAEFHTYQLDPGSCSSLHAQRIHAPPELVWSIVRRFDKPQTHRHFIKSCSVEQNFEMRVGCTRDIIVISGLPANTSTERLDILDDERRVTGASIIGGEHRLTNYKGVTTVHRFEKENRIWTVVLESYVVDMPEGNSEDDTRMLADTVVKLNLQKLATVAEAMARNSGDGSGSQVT
Protocol: as §1

[3] = tested on: PYR1^MANDI transgenic plants (E15, E16, F29, F34); assay: progressive water loss regime (drought); format: in vivo, Arabidopsis; details: 2 μM mandipropamid, repeated 4 days later; day 11
Protocol: Treatment of plants with ABA delays water loss and additionally improves the ability of plants to recover from drought. We therefore examined the behavior of wild type, 35S::GFP-PYR and 4 homozygous PYR1^MANDI expressing transgenic plants (E15, E16, F29 and F34) during a progressive water loss regime. […] Plants were grown for three weeks in pots containing the same mass of soil and receiving the same amount of water at each watering. At three weeks after germination, regular watering of the plants was ceased and plants were treated with mock or 2 μM mandipropamid. These treatments were repeated 4 days later. Plants were photographed at 1, 10 and 11 days after initiation of water deprivation. As is evident from FIG. 6, by day 10 mock treated plants display evidence of water stress as indicated by collapsed leaves, by day 11 all mock treated plants have experienced severe desiccation. […] This is also observed for wild type and 35S::GFP-PYR plants treated with mandipropamid at day 10. […] This is in contrast to wild type and 35S::GFP-PYR1 control plants treated with mandipropamid and all mock treated lines. Thus, mandipropamid is able to improve drought stress tolerance in PYR1^MANDI expressing transgenic plants. The beneficial effects of mandipropamid are restricted to PYR1^MANDI expressing transgenic plants.

[4] = tested on: 35S::PYR1^MANDI transgenic seeds; assay: seed germination on mandipropamid medium; format: in vivo, Arabidopsis; details: 1 μM mandipropamid
Description: (§2) We generated a series of transgenic plants expressing PYR1^MANDI under the control of either the cauliflower mosaic virus 35S or Arabidopsis Rubisco small subunit 3B promoters (RBCS). These were generated for the purpose of examining the physiological efficacy of the PYR1^MANDI-mandipropamid system for regulating ABA responses in planta. The PYR1^MANDI coding sequence was PCR amplified from pBD-PYR1^MANDI template and cloned into the plant transformation vector pEGAD under control of the 35S promoter. For the RBCS driven construct, the 35S promoter in pEGAD was replaced with the RBCS promoter, which was amplified from Arabidopsis genomic DNA by PCR; the pEGAD vector contains a glufosinate resistance gene and allows selection of transgenics in soil using commercially available formulations of glufosinate. These two constructs, p35S::PYR1^MANDI and pRBCS::PYR1^MANDI, were introduced into Agrobacterium tumefacians GV3101 and then used to transform Arabidopsis using the floral dip method (Clough and Bent, 1998) and the resultant seed germinated in soil and treated with glufosinate to identify transformed plants. Seed from approximately 15-16 transgenic plants were harvested individually and then characterized. It is well known that ABA inhibits seed germination. […]

[5] = tested on: RBCS::PYR1^MANDI transgenic seeds; assay: seed germination on mandipropamid medium; format: in vivo, Arabidopsis; details: 1 μM mandipropamid
Description: as §2

T1 sequence (O49686 whole entry Y58H/K59R/V81I/F108A/S122G/F159L): as above
T1 sequence (O04719 whole entry partner): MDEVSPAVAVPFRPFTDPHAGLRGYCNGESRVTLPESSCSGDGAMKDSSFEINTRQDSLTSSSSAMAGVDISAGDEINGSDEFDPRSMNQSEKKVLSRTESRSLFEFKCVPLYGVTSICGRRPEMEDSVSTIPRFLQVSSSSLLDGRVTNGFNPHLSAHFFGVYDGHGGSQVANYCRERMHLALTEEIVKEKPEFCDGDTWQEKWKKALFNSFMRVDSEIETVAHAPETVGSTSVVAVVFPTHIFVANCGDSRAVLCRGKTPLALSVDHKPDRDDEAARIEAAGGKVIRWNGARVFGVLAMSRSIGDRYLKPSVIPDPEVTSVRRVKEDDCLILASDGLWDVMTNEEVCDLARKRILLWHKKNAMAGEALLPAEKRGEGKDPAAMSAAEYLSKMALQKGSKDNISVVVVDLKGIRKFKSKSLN

## C#CCOc1ccc(CCNC(=O)C(OCC#C)c2ccc(Cl)cc2)cc1OC (centres unmarked) [Mandipropamid, mandipropamid]
[1]
  pIC50: 7.12
[2]
  pIC50: 7.49
[3]
  desiccation during water deprivation: not desiccated
[4]
  transgenic plants whose germination was inhibited by mandipropamid: 5 of the 15
[5]
  transgenic plants whose germination was inhibited by mandipropamid: 7 of the 16
